From patent US20250120932A1, “PHARMACEUTICAL COMPOSITION” (NEUROPRO THERAPEUTICS, INC., priority 2021, published 2025)
Where “and” joins values, the source holds several entries; their conditions need not be identical. Equal entries are not always repeated.

Legend:
[1] = Pharmacokinetic study in cynomolgus monkeys after oral (nasogastric) gavage, sublingual and intravenous administration; type: in vivo; details: monkey, individual animals
Procedure: A pharmacokinetic study was done in cynomolgus monkeys following single oral (nasogastric) gavage, sublingual, and intravenous administration. […] Calibration curves, blanks, and analytical QCs were prepared in monkey plasma (K2EDTA). The extracts were evaporated to dryness, reconstituted, and then analyzed by LC-MS/MS. The calibration range was 0.250-250 ng/mL for both analytes.
If the criteria for either the calibration curve or the analytical QCs were not met, the analytical run was rejected. […] No deviations were found during the bioanalytical phase of the study conducted by Origin. Calibration curves were derived from the individual analyte to internal standard peak area ratios using the least squared regression of the ratio versus the nominal concentration of the calibration standard, prepared in duplicate. The regression was then used to back-calculate the concentration of each calibration standard, QC sample and study sample. […] Analyst® Software Version 1.6.3 (Applied Biosystems-MDS Sciex), operated with Windows® (Microsoft), was used for instrument control, data acquisition, and peak integrations. Peak area ratios, standard curve regressions, and sample concentration/accuracy values were calculated with Analyst® Software Version 1.6.3. Other results (e.g., mean statistics) were calculated with Excel® (Microsoft).
There was no apparent sex difference for the second formulation. […] A fourth formulation comprising the composition B listed in Table 54 was also administered in monheys.

[2] = Prototype capsule (SEDDS) development: solubilization and dispersion test in water; type: physicochemical; details: capsule compositions with long chain triglycerides and 0 to 4.68% w/w ethanol
Procedure: Prototype capsule formulations were developed at a less than 2-gram scale. […] The oil phase was then added to the formulations and stirred until the solution became clear. The solutions were cooled to room temperature while stirring and co-solvent was then added (if applicable).
To test if the composition created macro-dispersions or micro-dispersions, about 30 mg of formulation was added into 1.0 g of water and lightly swirled. The resultant dispersion was visually characterized. SEDDS (macroemulsions) are typically characterized as an opaque milky white uniform liquid, and SEDDS (microemulsions) are characterized by a clear, isotropic, transparent solution with opalescence. […] Compositions 4 and 6 were selected for future development work, and the intermediate stability of those compositions was evaluated as described below.

Q: What does the source list for `CCCCNc1cc(C(=O)N(Cc2ccccc2)Cc2ccccc2)cc(S(N)(=O)=O)c1Oc1ccccc1` [Bumetanide Dibenzylamide, N, N-dibenzyl 3-aminosulfonyl-5-butylamino-4-phenoxybenzamide]?
A: Plasma Bumetanide Dibenzylamide concentration ([1]; NG 30 mg/kg, First Formulation (Form 1), 2.00 h, female monkeys): 11.1 ng/mL and 8.35 ng/mL; Plasma Bumetanide Dibenzylamide concentration ([1]; NG 30 mg/kg, First Formulation (Form 1), 2.00 h, male monkeys): 157 ng/mL and 74.0 ng/mL; Plasma Bumetanide Dibenzylamide concentration ([1]; NG 30 mg/kg, First Formulation (Form 1), 4.00 h, female monkeys): 9.83 ng/mL and 23.8 ng/mL; Plasma Bumetanide Dibenzylamide concentration ([1]; NG 30 mg/kg, First Formulation (Form 1), 4.00 h, male monkeys): 182 ng/mL and 51.4 ng/mL; Plasma Bumetanide Dibenzylamide concentration ([1]; NG 30 mg/kg, First Formulation (Form 1), 8.00 h, female monkeys): 17.5 ng/mL and 17.0 ng/mL; Plasma Bumetanide Dibenzylamide concentration ([1]; NG 30 mg/kg, First Formulation (Form 1), 8.00 h, male monkeys): 99.9 ng/mL and 45.1 ng/mL; Plasma Bumetanide Dibenzylamide concentration ([1]; NG 30 mg/kg, First Formulation (Form 1), 24.00 h, female monkeys): 3.28 ng/mL and 2.02 ng/mL; Plasma Bumetanide Dibenzylamide concentration ([1]; NG 30 mg/kg, First Formulation (Form 1), 24.00 h, male monkeys): 21.6 ng/mL and 7.47 ng/mL; Plasma Bumetanide Dibenzylamide concentration ([1]; NG 30 mg/kg, First Formulation (Form 1), 32.00 h, female monkeys): 0.790 ng/mL and 1.37 ng/mL; Plasma Bumetanide Dibenzylamide concentration ([1]; NG 30 mg/kg, First Formulation (Form 1), 32.00 h, male monkeys): 9.75 ng/mL and 6.13 ng/mL; Plasma Bumetanide Dibenzylamide concentration ([1]; NG 30 mg/kg, Second Formulation (Form 3), 0.00 h, female monkeys): 0.00 ng/mL; Plasma Bumetanide Dibenzylamide concentration ([1]; NG 30 mg/kg, Second Formulation (Form 3), 0.00 h, male monkeys): 0.00 ng/mL; Plasma Bumetanide Dibenzylamide concentration ([1]; NG 30 mg/kg, Second Formulation (Form 3), 0.25 h, female monkeys): 0.619 ng/mL and 0.261 ng/mL; Plasma Bumetanide Dibenzylamide concentration ([1]; NG 30 mg/kg, Second Formulation (Form 3), 0.25 h, male monkeys): 0.250 ng/mL and 0.00 ng/mL; Plasma Bumetanide Dibenzylamide concentration ([1]; NG 30 mg/kg, Second Formulation (Form 3), 0.50 h, female monkeys): 4.98 ng/mL and 1.71 ng/mL; Plasma Bumetanide Dibenzylamide concentration ([1]; NG 30 mg/kg, Second Formulation (Form 3), 0.50 h, male monkeys): 1.55 ng/mL and 3.16 ng/mL; Plasma Bumetanide Dibenzylamide concentration ([1]; NG 30 mg/kg, Second Formulation (Form 3), 1.00 h, female monkeys): 20.2 ng/mL and 7.09 ng/mL; Plasma Bumetanide Dibenzylamide concentration ([1]; NG 30 mg/kg, Second Formulation (Form 3), 1.00 h, male monkeys): 7.56 ng/mL and 11.3 ng/mL; Plasma Bumetanide Dibenzylamide concentration ([1]; NG 30 mg/kg, Second Formulation (Form 3), 2.00 h, female monkeys): 79.3 ng/mL and 37.8 ng/mL; Plasma Bumetanide Dibenzylamide concentration ([1]; NG 30 mg/kg, Second Formulation (Form 3), 2.00 h, male monkeys): 16.8 ng/mL and 82.5 ng/mL; Plasma Bumetanide Dibenzylamide concentration ([1]; NG 30 mg/kg, Second Formulation (Form 3), 4.00 h, female monkeys): 140 ng/mL and 247 ng/mL; Plasma Bumetanide Dibenzylamide concentration ([1]; NG 30 mg/kg, Second Formulation (Form 3), 4.00 h, male monkeys): 126 ng/mL and 410 ng/mL; Plasma Bumetanide Dibenzylamide concentration ([1]; NG 30 mg/kg, Second Formulation (Form 3), 8.00 h, female monkeys): 457 ng/mL and 674 ng/mL; Plasma Bumetanide Dibenzylamide concentration ([1]; NG 30 mg/kg, Second Formulation (Form 3), 8.00 h, male monkeys): 785 ng/mL; Plasma Bumetanide Dibenzylamide concentration ([1]; NG 30 mg/kg, Second Formulation (Form 3), 24.00 h, female monkeys): 9.30 ng/mL and 10.7 ng/mL; Plasma Bumetanide Dibenzylamide concentration ([1]; NG 30 mg/kg, Second Formulation (Form 3), 24.00 h, male monkeys): 26.4 ng/mL and 8.13 ng/mL; Plasma Bumetanide Dibenzylamide concentration ([1]; NG 30 mg/kg, Second Formulation (Form 3), 32.00 h, female monkeys): 1.63 ng/mL and 1.62 ng/mL; Plasma Bumetanide Dibenzylamide concentration ([1]; NG 30 mg/kg, Second Formulation (Form 3), 32.00 h, male monkeys): 6.41 ng/mL and 2.08 ng/mL; Plasma Bumetanide Dibenzylamide concentration ([1]; SL, dose column 5 mg/kg (title 30 mg/kg), Fourth Formulation (Form 2), 4.0 h): 0.00 ng/mL; Plasma Bumetanide Dibenzylamide concentration ([1]; SL, dose column 5 mg/kg (title 30 mg/kg), Fourth Formulation (Form 2), 8.0 h): 0.380 ng/mL; Plasma Bumetanide Dibenzylamide concentration ([1]; SL, dose column 5 mg/kg (title 30 mg/kg), Fourth Formulation (Form 2), 24.0 h): 0.363 ng/mL; Plasma Bumetanide Dibenzylamide concentration ([1]; SL, dose column 5 mg/kg (title 30 mg/kg), Fourth Formulation (Form 2), 32.0 h): 0.00 ng/mL; maximum solubility of Bumetanide Dibenzylamide [2]: about 1.8 % w/w
